In patent publication US20050249808A1, “NSAIDs compositions containing tartaric acid” (priority 2001, published 2005):
Like-named read-outs stand apart in the source and are kept apart here.

Key:
[1] = Oral bioavailability of ibuprofen crushed tablets in control rats; format: in vivo; conditions: male, Sprague-Dawley, rat, plasma, 20 mg/kg, oral 20 mg/kg ibuprofen as crushed tablets, read-out: AUC (0-8)
Procedure: The animal models are Adult male Sprague-Dawley rats with body weight of 250-300 g, and which were cared for in accordance with the principles and guidelines of the Canadian Council of Animal Care. All rats were catheterized in the right jugular vein for sample collection.
The tablets were crushed gently and small pieces were administered into the stomach via a plastic tube followed by 0.5 mL tap water. […] They had free access to water.

[2] = cited from earlier work; for AUC0-2h: 600 mg ibuprofen dose
[3] = parts of drug dissolving in 10,000 parts of water; cited from earlier work

AUC(0-t) [1]	Compound	change in mean time to peak concentration caused by surgery ([2]; 200 mg and 600 mg doses, dental surgery)	AUC0-6h, effect of surgery ([2]; dental surgery)	solubility in water [3]	AUC0-2h ([2]; after dental extraction)	AUC0-2h ([2]; before dental extraction)
139 µg·h/mL	CC(C)Cc1ccc(C(C)C(=O)O)cc1 (racemic) [ibuprofen, (±)-2-(4-Isobutylphenyl)propionic acid]	two hour delay	significantly reduced	less than 1 part		
	CC(C)Cc1ccc([C@H](C)C(=O)O)cc1 [S-ibuprofen, S(+)-2-(4-isobutylphenyl)propionic acid]				7.2 ± 5.5 µg·h/mL	14.2 ± 6.1 µg·h/mL
	CC(C)Cc1ccc([C@@H](C)C(=O)O)cc1 [R-ibuprofen, R(−)-2-(4-isobutylphenyl)propionic acid]				5.8 ± 7.1 µg·h/mL	14.4 ± 9.5 µg·h/mL
